Measurements taken from patent US20210228653A1, “BACILLUS LICHENIFORMIS STRAIN WITH PROBIOTIC ACTIVITY” (EVONIK DEGUSSA GMBH, priority 2016, published 2021).
“And” between values parts separate entries of the source, which are not always exact repeats. Identical values can stand only once.

Set-up: species or system broiler chickens (Vencobb 400)
Settings: in vivo

For “Bacitracin Methylene Disalicyclate [BMD]”, the “FCR (feed conversion ratio, feed to gain)” value was 1.42 g/g and 1.74 g/g, the “FCR compared to the control (in words)” value was “reduced” and the “body weight compared to the control (in words)” value was “improved the body weight”.
